Data reported in ChEMBL document CHEMBL1150780, “Duocarmycin-based prodrugs for cancer prodrug monotherapy” (Bioorg Med Chem, 2008).

Legend:
A549 [1] = experiment: Ratio of IC50 for human A549 cells to IC50 for human A549 cells in presence of beta-D-glucuronidase; format: functional
A549 [2] = experiment: Cytotoxicity against human A549 cells after 24 hrs visualized by Lofflers methylene blue by colony forming assay; format: functional, cell-based
A549 [3] = experiment: Cytotoxicity against human A549 cells after 24 hrs visualized by Lofflers methylene blue by colony forming assay in presence of beta-D-glucuronidase; format: functional, cell-based

| Structure (SMILES) | Ratio IC50 (A549 [1]) | IC50 (A549 [2]) | IC50 (A549 [3]) |
| --- | --- | --- | --- |
| COC(=O)[C@H]1O[C@@H](Oc2cc3c(c4ccccc24)[C@H]([C@@H](C)Cl)CN3C(=O)c2cc3cc(OCCN(C)C)ccc3[nH]2)[C@H](O)[C@@H](O)[C@@H]1O | 1600 | 3.3 µM | 0.0021 µM |
| C[C@@H](Cl)[C@@H]1CN(C(=O)c2cc3cc(OCCN(C)C)ccc3[nH]2)c2cc(O[C@@H]3O[C@H](C(=O)O)[C@@H](O)[C@H](O)[C@H]3O)c3ccccc3c21 | 700 | 0.61 µM | 0.0009 µM |
